Laboratory results published in patent US9220794B2, “Two-photon fluorescent probes for imaging of total sulfide in live cell and tissue, and quantitative estimation of total sulfide concentration using the same” (Korea University Research and Business Foundation, priority 2013, dated 2015).

How the values were obtained:
rat colon tissue [1] = test: Kinetic measurement of total sulfide in rat colon tissue slices; format: in vivo; settings: before 5-FU treatment; for total sulfide concentration in colon tissue: probe 2-6; for kobs in colon tissue: tissue labeled with 2-6
Experimental: To quantitatively estimate the total sulfide concentration, kinetic experiments were performed in the colon tissue labeled with the compound of [Chemical Formula 2-6].
(§1) Male Sprague-Dawley rats (235-265 g) were divided into two groups (5-FU and control groups). In the 5-FU group, 150 mg/kg of 5-FU (SoloPak Laboratories, Franklin Park, Ill.) were intraperitoneally injected into the rats. The rats of the control group were injected with saline. Each group consisted of 4 rats.
(§2) 8 hours after the intraperitoneal injection, all the rats were sacrificed. Laparotomy was performed after anesthetizing the rats.
Kinetic experiments in rat colon tissue were performed using four colon slices obtained from four rats. Two sets of experiments were performed for each slice. In each set, TPEF intensities from 8 ROI's/section were collected at depths of 90-150 μm (mucosa) and 151-170 μm (submucosa) in the colon tissue labeled with the compound of [Chemical Formula 2-6] and averaged.
The rate constant (kobs) was measured from 7 and 3 sections of the mucosa and submucosa tissues, respectively, in order to obtain 112 kobs and 48 kobs values, respectively. The rate constant (kobs) was expressed as mean±SD and p was set to be smaller than 0.05.

HeLa cells [2] = test: Two-photon excited fluorescence spectra of labeled HeLa cells; format: cell-based, human
Experimental: Accordingly, it can be seen that HEPES/EtOH (1/1) has polarity similar to that of the cellular environment.
This confirms again that HEPES/EtOH (1/1) is a good model of the cellular environment and HS^− can be detected by TPM using the compound of [Chemical Formula 2-6].
HeLa human cervical carcinoma cells were acquired from the ATCC (Manassas, Va., USA). The cells were cultured in DMEM (WelGene, Inc., Seoul, Korea) supplemented with heat-inactivated 10% FBS (WelGene), penicillin (100 units/mL) and streptomycin ([…]).
For labeling, the growth medium was removed and replaced with DMEM without FBS. The cells were incubated with the compound of [Chemical Formula 2-6] ([…]) for 30 minutes, washed 3 times with FBS-free DMEM and imaged.
The TPM images were obtained with the DM IRE2 microscope (Leica) by exciting the probes with a mode-locked titanium-sapphire laser source (Coherent Chameleon, 90 MHz, 200 fs) set at a wavelength of 750 nm and an output power of 1380 mW, which corresponded to an average power of approximately 2 mW in the focal plane.

rat colon tissue [3] = test: Ratiometric TPM imaging (F2/F1) of rat colon slices; format: in vivo; settings: basal, slices labeled with 20 μM 2-6
Experimental: The utility of the compound of [Chemical Formula 2-6] was investigated in living tissues from a 5-week-old rat colon. The inventors were particularly interested in the mucosa, muscularis mucosae and submucosa because they are invaded in the early stage of tumor (FIG. 4c). Since it takes a long time to stain the tissues during which they may be deformed, excess amount (20 μM) of the compound of [Chemical Formula 2-6] was used to facilitate staining.
Because the structure of the colon tissue is heterogeneous, TPEF intensities were acquired from 150 sections along the z-direction at a depth of about 90-170 μm using two detection windows (1 and 2) to visualize the overall sulfide distribution.
Therefore, the sections were divided into two regions and they were assigned as mucosa (90-150 μm) and submucosa including the muscularis mucosae (151-170 μm).
as §1
All the rats were injected between 9 pm and 12 midnight, were allowed free access to food and water and were housed in the same room with 8-hour cycles.
as §2
Slices were prepared from the colon of the rats. The colon slices were cut into 2-cm long segments, opened by longitudinal incision and then treated with Dulbecco's phosphate-buffered saline (D-PBS; […]).
The colon slices were incubated with the compound of [Chemical Formula 2-6] (20 μM) in D-PBS bubbled with 95% O2 and 5% CO2 at 37° C. The colon slices were then moved to glass-bottomed dishes, washed 3 times with D-PBS and observed under a confocal multiphoton microscope.
TPEF intensities were collected using detection windows of 390-450 nm and 520-650 nm, with 110 sections at a depth of 90-150 μm (mucosa) and 40 sections at a depth of 151-170 μm (submucosa).
Then ratiometric images were constructed from the TPEF intensities collected using the two detection window. The F2/F1 ratio was expressed as mean±SD and p was set to be smaller than 0.05.

HeLa cells [4] = test: Photostability of TPEF intensity in labeled HeLa cells; format: cell-based, human; settings: continuous radiation of fs-pulses for 60 minutes
Excerpt: These findings confirm that the compound of [Chemical Formula 2-6] can measure the total sulfide concentration in living cells by the kinetic method with minimum interference from cytotoxicity and photostability.

## COCCOCCC1(CCOCCOC)c2cc(NC(=O)OCc3ccc(N=[N+]=[N-])cc3)ccc2-c2ccc(-c3nc4ccccc4s3)cc21 [Chemical Formula 2-6]
Rat colon tissue [1]; mucosa
  total sulfide concentration in colon tissue: 7.0 ± 2.7 µM
  kobs in colon tissue: (2.0±0.8)×10^−5 s^−1
Rat colon tissue [1]; submucosa
  total sulfide concentration in colon tissue: 3.8 ± 1.4 µM
  kobs in colon tissue: (1.1±0.5)×10^−5 s^−1
HeLa cells [2]
  λ^flmax, maximum emission in cells: 450 nm
Rat colon tissue [3]; mucosa (90-150 μm)
  average emission ratio F2/F1: 0.82±0.07
Rat colon tissue [3]; submucosa (151-170 μm)
  average emission ratio F2/F1: 0.67±0.07
HeLa cells [4]
  photostability (decay of TPEF intensity): high photostability
